Results reported in ChEMBL document CHEMBL5331092, “PROTACS: A technology with a gold rush-like atmosphere” (Eur J Med Chem, 2023).
Values belong to the compound of their own block, whether it stands above or below them.

Columns and labels:
[1] = biological target: von Hippel-Lindau disease tumor suppressor/Androgen receptor (Homo sapiens) (UniProt P10275+P40337); assay: PROTAC activity at VHL/AR in human VCaP cells assessed as maximum degradation at 5 nM relative to control; assay type: cell-based
[2] = biological target: Protein cereblon/Tyrosine-protein kinase BTK (Homo sapiens, UniProt Q06187+Q96SW2); assay: PROTAC activity at CRBN/BTK in human TMD8 cells assessed as induction of BTK degradation incubated for 24 hrs by immunoblotting analysis; assay type: cell-based
[3] = biological target: T1, Protein cereblon/Estrogen receptor (Homo sapiens, UniProt P03372+Q96SW2); assay: Protac activity at CRBN E3 ligase/Estrogen receptor in human MCF7 cells assessed as induction of estrogen receptor degradation measured upto 24 hrs by ELISA method; assay type: cell-based
Target sequence in this assay (P03372 whole entry): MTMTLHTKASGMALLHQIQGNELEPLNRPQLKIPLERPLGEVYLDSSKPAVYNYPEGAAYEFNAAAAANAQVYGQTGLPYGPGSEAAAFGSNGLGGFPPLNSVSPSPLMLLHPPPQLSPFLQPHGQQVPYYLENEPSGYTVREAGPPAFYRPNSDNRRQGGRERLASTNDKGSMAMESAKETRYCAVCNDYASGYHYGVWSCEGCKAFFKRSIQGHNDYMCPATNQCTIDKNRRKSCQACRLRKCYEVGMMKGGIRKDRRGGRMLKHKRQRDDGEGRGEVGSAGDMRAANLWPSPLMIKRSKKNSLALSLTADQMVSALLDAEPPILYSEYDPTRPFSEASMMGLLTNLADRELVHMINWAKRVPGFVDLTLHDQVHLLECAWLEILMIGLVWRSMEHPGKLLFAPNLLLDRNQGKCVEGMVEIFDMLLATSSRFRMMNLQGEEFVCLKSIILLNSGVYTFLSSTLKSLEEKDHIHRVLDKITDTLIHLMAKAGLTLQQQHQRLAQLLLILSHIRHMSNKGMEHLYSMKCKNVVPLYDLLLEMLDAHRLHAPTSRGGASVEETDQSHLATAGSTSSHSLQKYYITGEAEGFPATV
Target sequence in this assay (Q96SW2 whole entry): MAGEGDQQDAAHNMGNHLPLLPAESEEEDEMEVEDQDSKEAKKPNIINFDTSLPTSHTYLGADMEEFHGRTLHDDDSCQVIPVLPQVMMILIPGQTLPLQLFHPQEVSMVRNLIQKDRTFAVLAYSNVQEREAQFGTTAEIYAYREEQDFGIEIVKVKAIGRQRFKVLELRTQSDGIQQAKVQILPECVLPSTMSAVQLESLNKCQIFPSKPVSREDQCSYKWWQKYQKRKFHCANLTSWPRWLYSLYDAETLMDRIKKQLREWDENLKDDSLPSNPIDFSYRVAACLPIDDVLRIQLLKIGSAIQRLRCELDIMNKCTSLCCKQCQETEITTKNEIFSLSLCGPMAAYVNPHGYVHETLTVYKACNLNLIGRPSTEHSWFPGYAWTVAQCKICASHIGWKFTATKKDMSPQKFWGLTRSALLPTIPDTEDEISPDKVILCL

[4] = biological target: T1, Protein cereblon/Estrogen receptor; assay: Protac activity at CRBN E3 ligase/Estrogen receptor in human MCF7 cells assessed maximum degradation at 1.5 uM measured upto 24 hrs by ELISA method relative to control; assay type: cell-based
Target sequence in this assay (P03372 whole entry, looked up): as the sequence (P03372 whole entry) above
Target sequence in this assay (Q96SW2 whole entry, looked up): as the sequence (Q96SW2 whole entry) above

[5] = biological target: T1, Protein cereblon/Estrogen receptor; assay: Protac activity at CRBN E3 ligase/Estrogen receptor in human T47D cells assessed as induction of estrogen receptor degradation measured upto 24 hrs by ELISA method; assay type: cell-based
Target sequence in this assay (P03372 whole entry): as the sequence (P03372 whole entry) above
Target sequence in this assay (Q96SW2 whole entry): as the sequence (Q96SW2 whole entry) above

[6] = biological target: T1, Protein cereblon/Estrogen receptor; assay: Protac activity at CRBN E3 ligase/Estrogen receptor in human T47D cells assessed maximum degradation at 1.5 uM measured upto 24 hrs by ELISA method relative to control; assay type: cell-based
Target sequence in this assay (P03372 whole entry, looked up): as the sequence (P03372 whole entry) above
Target sequence in this assay (Q96SW2 whole entry, looked up): as the sequence (Q96SW2 whole entry) above

[7] = biological target: Protein cereblon/Focal adhesion kinase 1 (Homo sapiens) (UniProt Q05397+Q96SW2); assay: Protac activity at CRBN E3 ligase/FAK (unknown origin) assessed as […] FAK degradation at 10 nM relative to control; assay type: protein assay; parameters: scale not given: the % may be the effect or the level left
Protein cereblon/Focal adhesion kinase 1 (Homo sapiens), sequence (Q05397 2-1052 limits assumed): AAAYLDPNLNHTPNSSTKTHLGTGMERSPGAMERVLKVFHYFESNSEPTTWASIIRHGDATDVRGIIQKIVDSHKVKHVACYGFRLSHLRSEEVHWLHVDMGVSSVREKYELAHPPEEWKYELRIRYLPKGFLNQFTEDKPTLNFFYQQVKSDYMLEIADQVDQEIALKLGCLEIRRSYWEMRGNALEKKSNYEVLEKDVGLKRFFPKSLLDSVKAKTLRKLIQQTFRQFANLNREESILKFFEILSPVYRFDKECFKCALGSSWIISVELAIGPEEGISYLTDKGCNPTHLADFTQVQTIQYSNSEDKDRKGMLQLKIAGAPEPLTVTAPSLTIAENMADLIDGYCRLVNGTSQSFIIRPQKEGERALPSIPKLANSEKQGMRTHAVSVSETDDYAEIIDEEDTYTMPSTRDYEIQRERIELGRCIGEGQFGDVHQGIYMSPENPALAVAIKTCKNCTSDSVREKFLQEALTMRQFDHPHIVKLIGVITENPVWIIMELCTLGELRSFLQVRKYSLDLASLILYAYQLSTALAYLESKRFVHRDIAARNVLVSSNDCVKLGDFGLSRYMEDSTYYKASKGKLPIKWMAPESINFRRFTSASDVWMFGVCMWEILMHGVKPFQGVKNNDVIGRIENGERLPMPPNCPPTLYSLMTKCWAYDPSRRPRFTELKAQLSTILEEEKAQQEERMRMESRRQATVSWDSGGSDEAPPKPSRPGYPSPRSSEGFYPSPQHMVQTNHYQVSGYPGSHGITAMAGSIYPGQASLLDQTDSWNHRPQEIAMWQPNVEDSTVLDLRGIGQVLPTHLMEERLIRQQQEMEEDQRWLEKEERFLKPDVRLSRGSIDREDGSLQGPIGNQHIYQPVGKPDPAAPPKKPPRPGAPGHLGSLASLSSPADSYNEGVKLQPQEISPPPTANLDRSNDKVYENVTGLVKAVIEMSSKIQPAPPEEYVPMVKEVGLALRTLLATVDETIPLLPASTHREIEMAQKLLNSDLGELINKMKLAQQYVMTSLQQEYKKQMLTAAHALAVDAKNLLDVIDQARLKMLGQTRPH
Protein cereblon/Focal adhesion kinase 1 (Homo sapiens), sequence (Q96SW2 whole entry partner): as the sequence (Q96SW2 whole entry) above

Protein cereblon/Tyrosine-protein kinase BTK, sequence (Q06187 whole entry): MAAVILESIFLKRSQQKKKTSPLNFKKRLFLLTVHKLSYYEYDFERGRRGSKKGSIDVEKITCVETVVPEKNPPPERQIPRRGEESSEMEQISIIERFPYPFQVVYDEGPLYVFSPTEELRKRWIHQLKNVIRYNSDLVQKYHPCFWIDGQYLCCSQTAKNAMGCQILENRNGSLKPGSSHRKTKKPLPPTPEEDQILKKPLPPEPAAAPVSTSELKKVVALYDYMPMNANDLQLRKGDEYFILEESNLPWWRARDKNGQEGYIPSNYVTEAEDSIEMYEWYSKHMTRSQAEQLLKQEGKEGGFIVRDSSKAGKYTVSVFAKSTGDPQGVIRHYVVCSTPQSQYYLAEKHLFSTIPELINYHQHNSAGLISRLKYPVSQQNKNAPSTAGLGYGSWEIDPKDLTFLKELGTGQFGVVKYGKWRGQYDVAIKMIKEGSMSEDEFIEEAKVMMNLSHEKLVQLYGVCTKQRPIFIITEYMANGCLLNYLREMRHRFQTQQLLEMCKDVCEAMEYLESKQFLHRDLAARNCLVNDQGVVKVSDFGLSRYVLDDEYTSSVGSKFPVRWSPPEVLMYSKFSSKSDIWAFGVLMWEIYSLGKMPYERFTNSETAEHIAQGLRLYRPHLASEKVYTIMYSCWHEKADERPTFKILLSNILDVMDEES
Protein cereblon/Tyrosine-protein kinase BTK, sequence (Q96SW2 whole entry): as the sequence (Q96SW2 whole entry) above
von Hippel-Lindau disease tumor suppressor/Androgen receptor (Homo sapiens), sequence (P10275 whole entry, looked up): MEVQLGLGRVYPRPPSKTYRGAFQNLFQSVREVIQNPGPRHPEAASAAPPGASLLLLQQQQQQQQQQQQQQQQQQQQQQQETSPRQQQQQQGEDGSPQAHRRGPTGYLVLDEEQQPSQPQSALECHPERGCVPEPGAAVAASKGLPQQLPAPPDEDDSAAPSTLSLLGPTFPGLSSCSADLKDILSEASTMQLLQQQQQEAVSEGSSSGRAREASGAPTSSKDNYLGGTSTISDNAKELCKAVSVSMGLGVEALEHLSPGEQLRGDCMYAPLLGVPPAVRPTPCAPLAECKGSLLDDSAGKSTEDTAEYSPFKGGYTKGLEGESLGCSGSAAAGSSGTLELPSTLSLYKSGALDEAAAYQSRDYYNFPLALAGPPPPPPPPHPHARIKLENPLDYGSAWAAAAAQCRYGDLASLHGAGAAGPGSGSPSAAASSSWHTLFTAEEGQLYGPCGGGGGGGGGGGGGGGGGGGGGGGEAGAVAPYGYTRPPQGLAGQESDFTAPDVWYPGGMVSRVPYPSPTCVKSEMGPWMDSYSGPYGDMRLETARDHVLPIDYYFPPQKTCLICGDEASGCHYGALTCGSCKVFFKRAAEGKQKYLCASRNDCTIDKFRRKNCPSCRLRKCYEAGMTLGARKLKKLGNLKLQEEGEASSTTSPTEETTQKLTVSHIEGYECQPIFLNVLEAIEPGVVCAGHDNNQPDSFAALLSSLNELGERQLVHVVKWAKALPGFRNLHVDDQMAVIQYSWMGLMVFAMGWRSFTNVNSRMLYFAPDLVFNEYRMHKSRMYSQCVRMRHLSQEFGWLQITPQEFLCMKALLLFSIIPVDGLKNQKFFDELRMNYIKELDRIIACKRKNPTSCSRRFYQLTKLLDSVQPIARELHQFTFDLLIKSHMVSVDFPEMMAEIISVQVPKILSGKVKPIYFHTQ
von Hippel-Lindau disease tumor suppressor/Androgen receptor (Homo sapiens), sequence (P40337 whole entry, looked up): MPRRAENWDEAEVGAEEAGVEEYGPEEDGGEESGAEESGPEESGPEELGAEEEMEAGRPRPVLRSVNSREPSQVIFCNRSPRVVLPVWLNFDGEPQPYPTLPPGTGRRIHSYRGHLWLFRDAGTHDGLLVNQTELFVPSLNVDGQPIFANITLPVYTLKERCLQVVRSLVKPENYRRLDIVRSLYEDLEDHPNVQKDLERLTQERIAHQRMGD

Structure (SMILES): Cc1ncsc1-c1ccc(CNC(=O)C2C[C@@H](O)CN2C(=O)C(NC(=O)COCCCCOc2ccc(-c3ccc(N4C(=S)N(c5ccc(C#N)c(C(F)(F)F)c5)C(=O)C4(C)C)cc3)cc2)C(C)(C)C)cc1 (some centres undefined)
Emax [1]: 95%

Structure (SMILES): Cc1ncsc1-c1ccc([C@H](C)NC(=O)C2C[C@@H](O)CN2C(=O)[C@@H](NC(=O)CCCCOc2ccc(CCNC(=O)c3ccc(C(=O)c4c(-c5ccc(O)cc5)sc5cc(O)ccc45)cc3)cc2)C(C)(C)C)cc1 (some centres undefined)
EC50 [3]: 1.1 nM | Emax [4]: 98%

Structure (SMILES): CN(c1ncccc1CNc1nc(Nc2ccc(NC(=O)c3cn(CCOCCOCCNc4cccc5c4C(=O)N(C4CCC(=O)NC4=O)C5=O)nn3)cc2)ncc1C(F)(F)F)S(C)(=O)=O (centres undefined)
Activity [7]: 90%

Other lines, results leading:

EC50 [2]: 4 nM
Structure (SMILES): Cc1cccc(C)c1Nc1nn(C)c2nc(Nc3ccc4c(c3)CN(CC3CCN(c5ccc6c(c5)C(=O)N(C5CCC(=O)NC5=O)C6=O)CC3)CC4)ncc12 (centres undefined)

EC50 [3]: 10 nM | Emax [4]: > 95% | EC50 [5]: 10 nM | Emax [6]: > 95%
Structure (SMILES): Cc1ncsc1-c1ccc([C@H](C)NC(=O)C2C[C@@H](O)CN2C(=O)[C@@H](NC(=O)CCCCOc2ccc(/C=N/NC(=O)c3ccc(C(=O)c4c(-c5ccc(O)cc5)sc5cc(O)ccc45)cc3)cc2)C(C)(C)C)cc1 (some centres undefined)
